Test results as given in patent publication US8975289B2, “Benzyl aralkyl ether compounds, method for preparing same, intermediate compounds, use of said compounds, method for treatment and/or prevention, pharmaceutical composition and medicament containing same” (priority 2009, dated 2015).
Values after ≈ are worked out from the molar mass of the structure shown. Like-named read-outs stand apart in the source and are kept apart here.

Key:
Assay type in all cases: cell-based
[1] = test system: filamentous fungi strains of Table 2 (n = 13); assay: MIC50, MIC90 and variation of MICs over the 13 strains of Table 2; conditions: for MIC50 / MIC90: n = 13 strains; for MIC50: read-out: MIC50 (minimum inhibitory concentration to inhibit 50% of strains), Average MIC; for MIC90: read-out: MIC90 (minimum inhibitory concentration to inhibit 90% of strains), Average MIC
Protocol: (§1) For the experiments of the present invention, the dermatophyte-type fungi strains that were obtained from clinical isolates and laboratory isolates, as described in Table 2 as follows, were used:
(§2) The fungal strains were grown on agar potato medium in a sloping chute at a temperature of 30° C. for a period of 7 to 15 days.
(§3) For the experiments, the compound 1-[2-(2,4-dichlorophenyl)-2-{[4-(trifluoromethyl)benzyl]oxy}ethyl]-1H-imidazole (BL-123) in the form of its nitrate salt and miconazole nitrate were used. Both compounds were dissolved in dimethyl sulfoxide (DMSO) to match the final concentration of the compound equal to or less than 1%.
(§4) The methodology used to test the sensitivity of the agent was of broth microdilution according to the method described in Standard M38-A (Reference method for broth dilution tests for determining the sensitivity to antifungal therapy for filamentous fungi; NCCLS, volume 22 No. 16, USA, 2008) as follows.
(§5) The fungus was cultivated pursuant to item 4.1. To the tubes wherein the fungi were grown, 5 mL of saline solution were added in order to extract the fungi from the agar surface. Then, this homogeneous suspension was transferred to a new tube and the colony-forming units (CFUs) were quantified according to counting methods: (i) in Sabouraud dextrose agar plates and (ii) in a Neubauer chamber.
(§6) Then, the fungi strains listed in Table 2 were inoculated in duplicate in a 96-well plate. There were used inocula of from 2 to 6×10^3 CFU/mL of fungi, per well, in a total volume of 0.2 mL of RPMI-1640 (containing L-glutamine and without bicarbonate) buffered at pH 7.0 with MOPS (acid 3-(N-morpholine) 15 propanesulfonic). The procedure was performed in a laminar flow.
(§7) The compounds to be tested were added in a serial dilution, in duplicate, in final concentrations of 16 μg/mL; 8 μg/mL; 4 μg/mL; 2 μg/mL; 1 μg/mL; 0.5 μg/mL; 0.25 μg/mL; 0.125 μg/mL; 0.0625 μg/mL; or 0.03125 μg/mL in culture medium present in each well.
(§8) The incubation of fungi with these compounds was performed by 4, 5, 6 and 7 days at temperatures from 30 to 35° C.
(§9) The fungi quantification was carried out with the growth of fungi in each well being compared to the growth occurred in the negative control by means of a mirror reading. The negative control is represented by fungi grown in culture medium in the absence of the tested compounds. The methodology of this comparison is the numerical rating to which the microdilution well was submitted. In this methodology, value 4 corresponds to no reduction of growth, value 3 corresponds to a slight reduction in growth or approximately 75% of the growth of the negative control, value 2 corresponds to a standout reduction in growth or approximately 50% of growth of negative control; value 1 corresponds to a slight growth or approximately 25% of the growth of the negative control, and value 0 corresponds to optically clear or absence of growth.
(§10) In this experiment, the minimum inhibitory concentration (MIC) is considered as the lowest concentration of the agent capable of inhibiting at least 80% of the growth of colony-forming units (CFUs).

[2] = test system: Trichophyton mentagrophytes 9533; assay: Broth microdilution MIC (M38-A), filamentous fungi, strain XIII
Protocol: as §1, §2, §3, §4, §5, §6, §7, §8
(§11) The fungi quantification was carried out with the growth of fungi in each well being compared to the growth occurred in the negative control by means of a mirror reading. The negative control is represented by fungi grown in culture medium in the absence of the tested compounds. The methodology of this comparison is the numerical rating to which the microdilution well was submitted. […]

[3] = test system: Trichophyton verrucosum 381; assay: Broth microdilution MIC (M38-A), filamentous fungi, strain IV
Protocol: as §1, §2, §3, §4, §5, §6, §7, §8, §11

Microsporum gypseum 24 = assay: Broth microdilution MIC (M38-A), filamentous fungi, strain III; conditions: Nannizzia gypsea
Protocol: as §1, §2, §3, §4, §5, §6, §7, §8, §11

[4] = test system: Trichophyton verrucosum 381; assay: Broth microdilution MIC (M38-A), filamentous fungi, strain VII; conditions: for MIC: Trichophyton verrucosum; for Resistance or sensitivity of the strain to the agent (in words): clinical isolate strain VII
Protocol: as §1, §2, §3, §4, §5, §6, §7, §8, §9, §10

Aspergillus Niger 16404 = assay: Broth microdilution MIC (M38-A), filamentous fungi, strain I; conditions: for MIC: Aspergillus niger; for Resistance or sensitivity of the strain to the agent (in words): clinical isolate strain I
Protocol: as §1, §2, §3, §4, §5, §6, §7, §8, §9, §10

[5] = test system: Microsporum gypseum 40051; assay: Broth microdilution MIC (M38-A), filamentous fungi, strain XII; conditions: Nannizzia gypsea
Protocol: as §1, §2, §3, §4, §5, §6, §7, §8, §11

[6] = test system: Candida parapsilosis 22019; assay: Broth microdilution MIC (M27-A2), yeast, strain XV; conditions: strain XV 22019, 48 hours incubation; read-out: MIC
Protocol: (§12) For the experiments of the present invention (i) yeast strains obtained from clinical isolates and laboratory isolates, and (ii) bacterial strains obtained from laboratory isolates were used, as described in Table 5 as follows. The yeast strains were grown in culture medium Sabouraud Dextrose Agar maintained at a temperature of 35° C. for 48 hours. […] The compounds were dissolved in dimethyl sulfoxide (DMSO) to match the final concentration of the compound equal to or less than 1%. The methodology used to test the sensitivity of the agent was broth microdilution according to the method described in Standard M27-A2 (Reference method for broth dilution tests to determine the sensitivity of yeasts to antifungal therapy-second edition, NCCLS, volume 22 number 15, USA, 2002) as follows. […] Then the suspensions were diluted in culture medium RPMI-1640 (buffered with MOPS 0.165 mol/l) at a final concentration of 50 to 2500 CFU/mL. The diluted suspensions were inoculated in duplicate in a 96-well plate. The procedure was performed in a laminar flow. […] The incubation of fungi with these compounds was carried out for 48 hours at temperature of 30 to 35° C. […] We have agreed in this experiment that the turbid medium is the result of microbial growth and the presence of deposit and a clear medium represents the absence of microbial growth. The minimum inhibitory concentration (MIC) was defined as the lowest tested drug concentration that prevents any degree of […] growth.

[7] = test system: Trichophyton rubrum 40005; assay: Broth microdilution MIC (M38-A), filamentous fungi, strain XI
Protocol: as §1, §2, §3, §4, §5, §6, §7, §8, §11

[8] = test system: Trichophyton mentagrophytes 40004; assay: Broth microdilution MIC (M38-A), filamentous fungi, strain X
Protocol: as §1, §2, §3, §4, §5, §6, §7, §8, §11

Candida glabrata 2001 = assay: Broth microdilution MIC (M27-A2), yeast, strain XVI; conditions: Nakaseomyces glabratus; strain XVI 2001, 48 hours incubation; read-out: MIC
Protocol: as §12

[9] = 96 h, strain XIII 9533, reading Day 4, average of four experiments
[10] = 168 h, strain XIII 9533, reading Day 7, average of four experiments
[11] = 96 h, strain IV 381, reading Day 4, average of four experiments
[12] = 168 h, strain IV 381, reading Day 7, average of four experiments
[13] = 96 h, strain III 24, reading Day 4, average of four experiments
[14] = 168 h, strain III 24, reading Day 7, average of four experiments
[15] = 96 h, strain VII 381, reading Day 4, average of four experiments
[16] = 168 h, strain VII 381, reading Day 7, average of four experiments
[17] = NIGER16404, 96 h, strain I 16404, reading Day 4, average of four experiments, >=80% growth inhibition
[18] = NIGER16404, 168 h, strain I 16404, reading Day 7, average of four experiments
[19] = 96 h, strain XII 40051, reading Day 4, average of four experiments
[20] = 168 h, strain XII 40051, reading Day 7, average of four experiments
[21] = 96 h, strain XI 40005, reading Day 4, average of four experiments
[22] = 168 h, strain XI 40005, reading Day 7, average of four experiments
[23] = 96 h, strain X 40004, reading Day 4, average of four experiments
[24] = 168 h, strain X 40004, reading Day 7, average of four experiments

SMILES | MIC50 ([1]; 96 h, Day 4) | MIC90 ([1]; 96 h, Day 4) | MIC50 ([1]; 168 h, Day 7) | MIC90 ([1]; 168 h, Day 7) | MIC [2, 9] | MIC [2, 10] | MIC [3, 11] | MIC [3, 12] | MIC (Microsporum gypseum 24; [13]) | MIC (Microsporum gypseum 24; [14]) | MIC [4, 15] | MIC [4, 16] | Resistance or sensitivity of the strain to the agent (in words) [4] | MIC (Aspergillus Niger 16404; [17]) | MIC (Aspergillus Niger 16404; [18]) | Resistance or sensitivity of the strain to the agent (in words) (Aspergillus Niger 16404) | MIC [5, 19] | MIC [5, 20] | MIC [6] | MIC [7, 21] | further results
Clc1ccc(COC(Cn2ccnc2)c2ccc(Cl)cc2Cl)c(Cl)c1 (stereo not shown) [Miconazole, miconazole, reference compound] | 0.5 µg/mL (≈ 1.2 µM) | > 16 µg/mL | 1 µg/mL (≈ 2.4 µM) | > 16 µg/mL | 0.06 µg/mL (≈ 0.144 µM) | 0.125 µg/mL (≈ 0.3 µM) | > 16 µg/mL | > 16 µg/mL | 0.05 µg/mL (≈ 0.12 µM) | 0.05 µg/mL (≈ 0.12 µM) | > 16 µg/mL | > 16 µg/mL | resistant | > 16 µg/mL | > 16 µg/mL | resistant | 0.03 µg/mL (≈ 0.0721 µM) | 0.06 µg/mL (≈ 0.144 µM) | 2 µg/mL (≈ 4.81 µM) | 0.5 µg/mL (≈ 1.2 µM) | MIC [7, 22]: 1 µg/mL (≈ 2.4 µM); MIC [8, 23]: 0.5 µg/mL (≈ 1.2 µM); MIC [8, 24]: 1 µg/mL (≈ 2.4 µM); MIC (Candida glabrata 2001): 0.125 µg/mL (≈ 0.3 µM)
FC(F)(F)c1ccc(COC(Cn2ccnc2)c2ccc(Cl)cc2Cl)cc1 (stereo not shown) [BL-123, 1-[2-(2,4-dichlorophenyl)-2-{[4-(trifluoromethyl)benzyl]oxy}ethyl]-1H-imidazole] | 0.25 µg/mL (≈ 0.602 µM) | 4 µg/mL (≈ 9.63 µM) | 0.5 µg/mL (≈ 1.2 µM) | 8 µg/mL (≈ 19.3 µM) | 0.03 µg/mL (≈ 0.0722 µM) | 0.125 µg/mL (≈ 0.301 µM) | > 16 µg/mL | > 16 µg/mL | 0.25 µg/mL (≈ 0.602 µM) | 0.25 µg/mL (≈ 0.602 µM) | 4 µg/mL (≈ 9.63 µM) | > 16 µg/mL | sensitive | 8 µg/mL (≈ 19.3 µM) | 8 µg/mL (≈ 19.3 µM) | sensitive | 0.03 µg/mL (≈ 0.0722 µM) | 0.03 µg/mL (≈ 0.0722 µM) | 4 µg/mL (≈ 9.63 µM) | 0.25 µg/mL (≈ 0.602 µM) | Inhibitory effect on growth (in words) ([1]; 13 different strains, seven different species): exerts an inhibitory effect on growth; MIC [7, 22]: 0.5 µg/mL (≈ 1.2 µM); MIC [8, 23]: 0.25 µg/mL (≈ 0.602 µM); MIC [8, 24]: 0.5 µg/mL (≈ 1.2 µM); MIC (Candida glabrata 2001): 0.125 µg/mL (≈ 0.301 µM)
